Reference: PMC6695453, “Peptide translocation by the lysosomal ABC transporter TAPL is regulated by coupling efficiency and activation energy” (Scientific Reports, 2019)
Bridge positions count the residues as written; N and C are the ends. Ends that are not written are not given here. Peptide text beside a SMILES is read from it. I, II: the chains in the order shown.

Key:
TAPL [1] = biological target: T1, TAPL (Homo sapiens, UniProt Q9NP78); test: NTP dependent peptide transport by TAPL; format: biochemical; details: 37 °C
T1 construct: Human coreTAPL (Q9NP78 UniProt, amino acid 143–766) fused C-terminally to mVenus; made in house; host or cells: Pichia pastoris SMD1168-His+
T1 sequence (Q9NP78 143-766): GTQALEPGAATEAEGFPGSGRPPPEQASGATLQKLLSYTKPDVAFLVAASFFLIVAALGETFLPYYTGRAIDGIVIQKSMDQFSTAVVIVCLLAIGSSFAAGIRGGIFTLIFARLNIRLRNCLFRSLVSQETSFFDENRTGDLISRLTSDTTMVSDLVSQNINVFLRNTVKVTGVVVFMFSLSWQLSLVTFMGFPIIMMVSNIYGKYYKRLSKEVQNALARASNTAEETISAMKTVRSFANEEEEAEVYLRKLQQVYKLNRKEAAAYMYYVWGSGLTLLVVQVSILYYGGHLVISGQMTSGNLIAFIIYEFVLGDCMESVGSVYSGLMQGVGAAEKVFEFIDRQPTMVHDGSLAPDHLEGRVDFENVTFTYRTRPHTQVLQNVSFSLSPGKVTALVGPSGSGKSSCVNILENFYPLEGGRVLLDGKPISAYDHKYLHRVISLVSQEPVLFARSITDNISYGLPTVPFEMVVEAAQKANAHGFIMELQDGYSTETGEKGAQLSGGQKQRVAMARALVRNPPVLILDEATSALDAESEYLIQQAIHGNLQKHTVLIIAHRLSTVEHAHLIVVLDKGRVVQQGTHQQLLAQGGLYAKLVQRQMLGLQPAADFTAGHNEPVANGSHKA
Protocol: Subsequently, we performed Michaelis-Menten kinetics of 9-mer peptide (100 µM) transport using increasing ATP and GTP concentrations. […] Additionally, we quantified the nucleotide hydrolysis kinetics of ATP and GTP in the presence and absence of the 9-mer peptide. […] Moreover, we assume a subtle difference in the cross-talk between the nucleotide binding domain and the transmembrane domain, which is caused by the type of purine base.
(A) NTP dependent peptide transport was performed with 9-mer^FL peptide (100 µM). (B) NTP hydrolysis was analyzed in the presence of 9-mer peptide (100 µM) by radioactive based assay. Experiments were performed in triplicates, error bars indicate SD.

Pdr5 = details: GTP, UTP, ATP; cited from earlier work
From the text: Both nucleotides show the same Km and kcat values in respect of NTP hydrolysis. […] NTP dependent transport was found also for other ABC transporters. […] The full-length ABC transport Pdr5 from yeast hydrolyzes GTP and even UTP, but ...

TAPL [2] = biological target: T1, TAPL; test: Peptide transport into TAPL proteoliposomes; format: biochemical; details: 15 min, 37 °C
Protocol: (A) Proteoliposomes (0.5 mg/ml lipids) were incubated with 10 µM of 9-mer^FL peptide and 3 mM ATP, 3 mM ADP, without any nucleotide (−) or with 3 mM ATP in the presence of ortho-vanadate (Vi, 500 µM). […] […] Transport was performed in triplicates with error bars indicating SD.
CoreTAPL fused C-terminally to mVenus was produced in P. pastoris by large scale expression in a 7.5 liter Labfors4 reactor (Infors HT, Einsbach, Germany) by fed batch method and cell pellets were stored at −80 °C[14],[44]. Core[…] fused C-terminally to mVenus was produced in P. pastoris in Erlenmeyer flasks. TmrAB from T. thermophilus was expressed in Escherichia coli and cell pellets were stored at −80 °C[30]. CoreTAPL and TmrAB were purified and reconstituted (40:1 (wt/wt) lipid to protein) as described into unilamellar liposomes composed of E. coli polar lipids and DOPC (7:3 (wt/wt); Avanti Polar Lipids), which were ultrasonicated, five times frozen and thawed and extruded through a 400 nm polycarbonate filter (Avestin, Mannheim, Germany)[13],[14],[30]. Proteoliposomes were snap frozen in liquid nitrogen and stored at −80 °C. […] Concentration of coreTAPL and core[…] was determined by specific absorption of mVenus (ε515 = 45.950 M^−1cm^−1). For calculation of TmrAB concentration ε280 = 159.630 M^−1cm^−1 was applied.

TAPL [3] = biological target: T1, TAPL; test: NTP hydrolysis by TAPL, malachite green based assay; format: biochemical
Protocol: Kinetics were recorded under steady-state conditions in which peptide accumulation in proteoliposomes is far below saturation (Figs S2,S5).
ATP hydrolysis was determined by malachite green based assay in the absence or presence of 100 µM peptide (filled bar) or ortho-vanadate (500 µM, white bar) (A) or with increasing peptide concentrations (B). Hydrolysis rates of 16-mer and 18-mer peptide were fitted with equation 6. IC50 values, Hill coefficients and kcat are depicted in Table 1. […] All experiments were performed in triplicates, error bars indicate SD.
The reaction was started by the addition of NTP. Background and autohydrolysis were determined with 500 µM ortho-vanadate or in the absence of protein, respectively. Hydrolysis was stopped by the addition of 20 mM H2SO4, supplemented with malachite green solution (3 mM malachite green, 0.2% (v/v) Tween 20, 1.5% (w/v) ammoniummolybdate) and absorption was detected after 10 min incubation at room temperature at 620 nm using a microplate reader (CLARIOstar, BMG LABTECH). IC50 values for peptides were determined by6 v=vmin+vmax−vmin/1+10^(LOGIC50−[I])⋅n where v represents the peptide inhibitor [I] dependent hydrolysis rate, vmax the maximal hydrolysis rate in the absence of peptide, vmin the minimal hydrolysis rate at saturating peptide concentrations and n the Hill slope. IC50 represents the half maximal inhibitory peptide concentration.

[4] = test system: Nc1nc2c(ncn2[C@@H]2O[C@H](COP(=O)(O)OP(=O)(O)OP(=O)(O)O)[C@@H](O)[C@H]2O)c(=O)[nH]1; test: purified protein, by the assay type; details: other: 68 °C, 10 min, 9-mer^FL peptide (30 µM), triplicates, SD
[5] = test system: Nc1ncnc2c1ncn2[C@@H]1O[C@H](COP(=O)(O)OP(=O)(O)OP(=O)(O)O)[C@@H](O)[C@H]1O; test: purified protein, by the assay type; details: other: 68 °C, 10 min, 9-mer^FL peptide (30 µM), triplicates, SD

Nc1ncnc2c1ncn2[C@@H]1O[C@H](COP(=O)(O)OP(=O)(O)OP(=O)(O)O)[C@@H](O)[C@H]1O [ATP]
fold turnover number of peptide transport, ATP over GTP (TAPL [1]; ATP vs GTP, 9-mer peptide (100 µM)): 6 fold | nucleotide hydrolysis by Pdr5 (in words) (Pdr5): highest efficiency

[O]=[V]([O-])([O-])[O-] [ortho-vanadate]
inhibition of GTP dependent peptide transport (in words) (TAPL [1]; ortho-vanadate 500 µM, 3 mM GTP, 10 µM 9-mer^FL, 15 min): inhibited | inhibition of ATP dependent peptide translocation (in words) (TAPL [2]; ortho-vanadate 500 µM, 3 mM ATP, 10 µM 9-mer^FL): specifically inhibited | effect on basal ATP hydrolysis (in words) (TAPL [3]; 3 mM ATP, 15 min, 37 °C, malachite green, peptide up to 100 µM or ortho-vanadate 500 µM): blocked | effect on GTP hydrolysis (in words) (TAPL [3]; 3 mM GTP, 15 min, 37 °C, malachite green, 9-mer peptide 100 µM or ortho-vanadate 500 µM): inhibited

CC(C)C[C@H](NC(=O)[C@H](CCC(=O)O)NC(=O)[C@@H](NC(=O)[C@H](CO)NC(=O)[C@H](CCCCNC(=O)[C@H](CCCCN)NC(=O)[C@H](CCCCN)NC(=O)[C@H](CCCCN)NC(=O)[C@H](CCCCN)NC(=O)[C@H](CCCCN)NC(=O)[C@H](CCCCN)NC(=O)[C@H](CCCCN)NC(=O)[C@@H](N)CCCCN)NC(=O)[C@H](CS)NC(=O)[C@H](Cc1ccc(O)cc1)NC(=O)[C@@H](N)CCCNC(=N)N)[C@@H](C)O)C(=O)O [16-mer, RYCK(K8)STEL] (I: H-KKKKKKKK / II: H-RYCKSTEL-OH; amide I:C-II:4; N-terminus assumed)
kcat(Pep) turnover number of peptide transport (TAPL [2]; proteoliposomes, 3 mM ATP, pH 7.5, fluorescein labeled (FL) peptides used, triplicates, SD, listed as 16-mer^FL): 0.00417 s⁻¹ | ATP per translocated peptide (TAPL [3]; ATP hydrolysis at saturating peptide divided by peptide transport turnover): 100 ATP per translocated peptide | Hill slope of ATP hydrolysis inhibition (TAPL [3]; proteoliposomes, 3 mM ATP, 15 min, 37 °C, malachite green, unlabeled peptides): −2.09 ± 0.73 | kcat(ATP) rate constant of ATP hydrolysis (TAPL [3]; under saturating peptide concentration, 3 mM ATP, 15 min, 37 °C, malachite green, unlabeled peptides): 0.367 ± 0.067 s⁻¹

TmrAB (Thermus thermophilus HB27)
Km ([4]; radioactive assay): 617 ± 144 µM | kcat ([4]; radioactive assay): 2.47 ± 0.2 s⁻¹ | Km ([4]; pH 7.5): 391 ± 136 µM | kcat ([4]; pH 7.5): 0.0167 ± 0.00167 s⁻¹ | Km ([5]; radioactive assay): 661 ± 176 µM | kcat ([5]; radioactive assay): 2.25 ± 0.217 s⁻¹ | Km ([5]; pH 7.5): 782 ± 213 µM | kcat ([5]; pH 7.5): 0.105 ± 0.01 s⁻¹

RRYC^FluoresceinKSTEL [9-mer^FL, fluorescein labeled 9-mer peptide]
Km (TAPL [2]; read-out: Km(Pep) of 9-mer transport with GTP, 3 mM GTP, proteoliposomes, triplicates, SD): 4.4 ± 0.8 µM

RRYQKSTELRRYQKSTEL [18-mer]
reduction of ATP hydrolysis (TAPL [3]; 100 µM peptide, 3 mM ATP, 15 min, 37 °C, vs absence of peptide): 50%
